Values of other authors, collected in paper PMC9851200, “Multiparameter phenotypic screening for endogenous TFEB and TFE3 translocation identifies novel chemical series modulating lysosome function” (Autophagy, 2022).

Experiments:
Parameters in all cases: method as in original PKIS2 published data
[1] = molecular target: kinases (KINOMEscan panel) (Homo sapiens, UniProt Q16584); conditions: kinase MAP3K11; Published KINOMEscan; ref original PKIS2 published data; cited from earlier work
[2] = molecular target: kinases (KINOMEscan panel) (Homo sapiens, UniProt P53350); conditions: PLK1; Published KINOMEscan; ref original PKIS2 published data; cited from earlier work
Sequence of kinases (KINOMEscan panel) (Homo sapiens, UniProt P53350) (P53350 whole entry): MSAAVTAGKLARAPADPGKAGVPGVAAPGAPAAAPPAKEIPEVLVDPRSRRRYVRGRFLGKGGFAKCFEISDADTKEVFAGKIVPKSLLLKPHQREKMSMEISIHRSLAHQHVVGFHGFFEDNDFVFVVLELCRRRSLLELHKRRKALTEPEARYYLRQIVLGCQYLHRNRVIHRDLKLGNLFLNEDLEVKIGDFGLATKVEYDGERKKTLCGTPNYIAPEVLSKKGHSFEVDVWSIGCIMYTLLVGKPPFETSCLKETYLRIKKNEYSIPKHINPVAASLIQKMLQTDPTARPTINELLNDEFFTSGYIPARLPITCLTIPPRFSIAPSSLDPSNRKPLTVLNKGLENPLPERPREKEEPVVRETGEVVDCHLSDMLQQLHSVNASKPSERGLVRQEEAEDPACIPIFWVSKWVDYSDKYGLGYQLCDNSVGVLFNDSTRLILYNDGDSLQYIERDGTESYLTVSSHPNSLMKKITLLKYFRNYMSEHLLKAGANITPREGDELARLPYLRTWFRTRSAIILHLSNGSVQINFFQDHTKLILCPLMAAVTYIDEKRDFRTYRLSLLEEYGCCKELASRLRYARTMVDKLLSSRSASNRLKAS

[3] = molecular target: T1, kinases (KINOMEscan panel) (Homo sapiens, UniProt Q99759); conditions: MAP3K3; Published KINOMEscan; ref original PKIS2 published data; cited from earlier work
T1 sequence (Q99759 1-626): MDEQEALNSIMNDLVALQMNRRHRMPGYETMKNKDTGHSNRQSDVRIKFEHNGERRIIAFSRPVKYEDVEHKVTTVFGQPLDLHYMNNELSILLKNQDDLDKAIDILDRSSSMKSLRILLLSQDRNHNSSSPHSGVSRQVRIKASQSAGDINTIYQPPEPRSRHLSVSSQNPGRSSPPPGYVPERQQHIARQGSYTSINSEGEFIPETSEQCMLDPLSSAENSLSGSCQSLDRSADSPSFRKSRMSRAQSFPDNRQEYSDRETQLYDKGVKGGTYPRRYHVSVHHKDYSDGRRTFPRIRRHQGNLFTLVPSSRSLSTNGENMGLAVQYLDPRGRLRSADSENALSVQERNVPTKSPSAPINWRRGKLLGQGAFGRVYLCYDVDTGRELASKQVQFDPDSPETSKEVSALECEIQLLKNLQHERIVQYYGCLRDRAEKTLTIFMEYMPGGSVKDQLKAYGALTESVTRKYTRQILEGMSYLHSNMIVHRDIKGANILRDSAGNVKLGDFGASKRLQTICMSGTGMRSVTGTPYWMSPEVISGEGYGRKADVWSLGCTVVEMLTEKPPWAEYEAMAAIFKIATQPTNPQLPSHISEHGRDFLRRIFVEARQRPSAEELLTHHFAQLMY

[4] = molecular target: kinases (KINOMEscan panel) (Homo sapiens, UniProt Q16512); conditions: Published KINOMEscan; ref original PKIS2 published data; cited from earlier work
Sequence of kinases (KINOMEscan panel) (Homo sapiens, UniProt Q16512) (Q16512 whole entry): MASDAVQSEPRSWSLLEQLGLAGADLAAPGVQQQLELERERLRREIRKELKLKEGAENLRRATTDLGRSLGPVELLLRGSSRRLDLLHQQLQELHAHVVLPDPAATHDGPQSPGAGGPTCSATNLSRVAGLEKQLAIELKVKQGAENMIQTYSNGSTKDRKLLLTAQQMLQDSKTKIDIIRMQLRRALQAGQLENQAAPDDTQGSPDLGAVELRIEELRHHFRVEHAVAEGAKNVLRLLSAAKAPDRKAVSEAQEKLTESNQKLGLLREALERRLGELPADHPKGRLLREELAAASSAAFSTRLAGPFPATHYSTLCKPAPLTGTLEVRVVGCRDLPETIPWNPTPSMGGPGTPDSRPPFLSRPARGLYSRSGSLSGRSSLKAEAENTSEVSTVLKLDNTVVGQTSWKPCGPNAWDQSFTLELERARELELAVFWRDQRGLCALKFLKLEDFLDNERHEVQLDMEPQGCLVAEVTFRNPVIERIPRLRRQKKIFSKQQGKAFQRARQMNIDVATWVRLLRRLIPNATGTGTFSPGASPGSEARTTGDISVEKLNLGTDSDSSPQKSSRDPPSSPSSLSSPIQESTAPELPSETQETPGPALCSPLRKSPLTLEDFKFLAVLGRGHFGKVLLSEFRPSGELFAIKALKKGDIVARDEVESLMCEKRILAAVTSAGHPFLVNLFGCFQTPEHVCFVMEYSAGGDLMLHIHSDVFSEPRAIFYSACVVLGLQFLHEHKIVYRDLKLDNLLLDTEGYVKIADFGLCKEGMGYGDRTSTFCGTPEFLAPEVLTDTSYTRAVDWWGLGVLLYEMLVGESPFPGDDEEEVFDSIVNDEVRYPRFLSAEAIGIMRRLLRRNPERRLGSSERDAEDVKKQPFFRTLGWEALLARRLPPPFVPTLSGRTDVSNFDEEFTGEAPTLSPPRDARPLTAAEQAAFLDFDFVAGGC

[5] = molecular target: kinases (KINOMEscan panel) (Homo sapiens, UniProt Q15746); conditions: kinase MYLK; Published KINOMEscan; ref original PKIS2 published data; cited from earlier work
Sequence of kinases (KINOMEscan panel) (Homo sapiens, UniProt Q15746) (Q15746 whole entry): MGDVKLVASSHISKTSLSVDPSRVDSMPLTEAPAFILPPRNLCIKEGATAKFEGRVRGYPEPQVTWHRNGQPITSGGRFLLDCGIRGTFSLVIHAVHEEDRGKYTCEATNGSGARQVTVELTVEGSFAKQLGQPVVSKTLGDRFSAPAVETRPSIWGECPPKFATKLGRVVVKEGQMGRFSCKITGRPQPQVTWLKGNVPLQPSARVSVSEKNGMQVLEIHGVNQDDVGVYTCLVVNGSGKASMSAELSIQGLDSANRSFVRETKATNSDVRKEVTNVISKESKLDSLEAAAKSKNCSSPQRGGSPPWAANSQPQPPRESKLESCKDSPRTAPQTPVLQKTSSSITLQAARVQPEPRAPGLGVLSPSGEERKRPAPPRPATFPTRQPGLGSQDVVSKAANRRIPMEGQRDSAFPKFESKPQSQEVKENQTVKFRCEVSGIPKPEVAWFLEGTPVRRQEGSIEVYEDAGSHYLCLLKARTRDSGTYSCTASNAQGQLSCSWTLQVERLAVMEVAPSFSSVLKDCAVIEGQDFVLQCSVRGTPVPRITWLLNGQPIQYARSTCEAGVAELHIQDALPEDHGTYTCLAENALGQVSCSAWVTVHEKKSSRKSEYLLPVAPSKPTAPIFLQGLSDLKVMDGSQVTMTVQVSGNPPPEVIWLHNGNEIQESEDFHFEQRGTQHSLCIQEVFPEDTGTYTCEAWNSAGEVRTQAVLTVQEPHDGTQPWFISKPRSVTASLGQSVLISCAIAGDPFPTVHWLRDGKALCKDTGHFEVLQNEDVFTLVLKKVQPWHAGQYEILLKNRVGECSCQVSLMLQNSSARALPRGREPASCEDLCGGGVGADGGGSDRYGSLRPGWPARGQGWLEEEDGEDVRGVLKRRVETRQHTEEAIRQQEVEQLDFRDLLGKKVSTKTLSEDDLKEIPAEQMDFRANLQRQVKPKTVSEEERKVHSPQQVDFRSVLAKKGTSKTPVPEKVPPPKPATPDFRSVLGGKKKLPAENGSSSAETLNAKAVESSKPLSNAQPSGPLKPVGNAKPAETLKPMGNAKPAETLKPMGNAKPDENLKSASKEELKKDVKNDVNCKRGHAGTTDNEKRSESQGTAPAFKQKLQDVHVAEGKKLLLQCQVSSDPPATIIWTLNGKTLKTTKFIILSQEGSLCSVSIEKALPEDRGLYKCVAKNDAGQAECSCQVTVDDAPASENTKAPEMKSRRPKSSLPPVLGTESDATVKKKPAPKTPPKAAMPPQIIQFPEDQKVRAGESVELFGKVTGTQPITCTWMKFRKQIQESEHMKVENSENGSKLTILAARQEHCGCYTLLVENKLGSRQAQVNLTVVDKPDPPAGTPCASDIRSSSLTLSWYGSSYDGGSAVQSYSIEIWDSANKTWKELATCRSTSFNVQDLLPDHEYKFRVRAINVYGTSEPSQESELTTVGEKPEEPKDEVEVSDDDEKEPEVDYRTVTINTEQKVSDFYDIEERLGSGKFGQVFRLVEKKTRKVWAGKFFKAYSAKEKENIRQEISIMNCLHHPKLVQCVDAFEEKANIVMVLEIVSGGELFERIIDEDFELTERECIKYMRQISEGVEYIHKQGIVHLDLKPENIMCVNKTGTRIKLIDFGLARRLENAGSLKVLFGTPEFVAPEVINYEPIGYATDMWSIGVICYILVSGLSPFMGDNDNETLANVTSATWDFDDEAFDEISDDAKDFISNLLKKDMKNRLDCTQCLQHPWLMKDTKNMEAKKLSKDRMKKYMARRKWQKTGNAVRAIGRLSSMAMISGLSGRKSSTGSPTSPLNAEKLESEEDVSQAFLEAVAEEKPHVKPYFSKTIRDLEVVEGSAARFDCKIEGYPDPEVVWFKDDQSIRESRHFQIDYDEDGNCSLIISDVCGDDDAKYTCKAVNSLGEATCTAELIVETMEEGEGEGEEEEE

[6] = molecular target: T2, kinases (KINOMEscan panel) (Homo sapiens, UniProt O14730); conditions: RIOK3; Published KINOMEscan; ref original PKIS2 published data; cited from earlier work
T2 sequence (O14730 1-519): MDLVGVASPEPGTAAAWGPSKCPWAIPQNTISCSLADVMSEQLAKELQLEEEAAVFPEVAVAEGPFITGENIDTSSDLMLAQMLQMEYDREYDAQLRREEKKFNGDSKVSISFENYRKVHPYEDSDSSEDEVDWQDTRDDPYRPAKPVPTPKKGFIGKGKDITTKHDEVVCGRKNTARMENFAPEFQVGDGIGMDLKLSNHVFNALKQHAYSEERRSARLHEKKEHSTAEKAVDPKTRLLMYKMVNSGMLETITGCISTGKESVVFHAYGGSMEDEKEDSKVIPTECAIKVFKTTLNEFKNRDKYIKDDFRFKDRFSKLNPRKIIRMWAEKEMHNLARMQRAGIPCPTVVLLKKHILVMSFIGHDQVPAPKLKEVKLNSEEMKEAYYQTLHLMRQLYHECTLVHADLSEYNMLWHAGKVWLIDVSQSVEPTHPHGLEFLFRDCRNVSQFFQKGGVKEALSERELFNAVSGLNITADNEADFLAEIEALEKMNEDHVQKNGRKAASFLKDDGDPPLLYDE

[7] = molecular target: T3, kinases (KINOMEscan panel) (Homo sapiens, UniProt Q9UF33); conditions: kinase EPHA6; Published KINOMEscan; ref original PKIS2 published data; cited from earlier work
T3 sequence (Q9UF33 23-1036): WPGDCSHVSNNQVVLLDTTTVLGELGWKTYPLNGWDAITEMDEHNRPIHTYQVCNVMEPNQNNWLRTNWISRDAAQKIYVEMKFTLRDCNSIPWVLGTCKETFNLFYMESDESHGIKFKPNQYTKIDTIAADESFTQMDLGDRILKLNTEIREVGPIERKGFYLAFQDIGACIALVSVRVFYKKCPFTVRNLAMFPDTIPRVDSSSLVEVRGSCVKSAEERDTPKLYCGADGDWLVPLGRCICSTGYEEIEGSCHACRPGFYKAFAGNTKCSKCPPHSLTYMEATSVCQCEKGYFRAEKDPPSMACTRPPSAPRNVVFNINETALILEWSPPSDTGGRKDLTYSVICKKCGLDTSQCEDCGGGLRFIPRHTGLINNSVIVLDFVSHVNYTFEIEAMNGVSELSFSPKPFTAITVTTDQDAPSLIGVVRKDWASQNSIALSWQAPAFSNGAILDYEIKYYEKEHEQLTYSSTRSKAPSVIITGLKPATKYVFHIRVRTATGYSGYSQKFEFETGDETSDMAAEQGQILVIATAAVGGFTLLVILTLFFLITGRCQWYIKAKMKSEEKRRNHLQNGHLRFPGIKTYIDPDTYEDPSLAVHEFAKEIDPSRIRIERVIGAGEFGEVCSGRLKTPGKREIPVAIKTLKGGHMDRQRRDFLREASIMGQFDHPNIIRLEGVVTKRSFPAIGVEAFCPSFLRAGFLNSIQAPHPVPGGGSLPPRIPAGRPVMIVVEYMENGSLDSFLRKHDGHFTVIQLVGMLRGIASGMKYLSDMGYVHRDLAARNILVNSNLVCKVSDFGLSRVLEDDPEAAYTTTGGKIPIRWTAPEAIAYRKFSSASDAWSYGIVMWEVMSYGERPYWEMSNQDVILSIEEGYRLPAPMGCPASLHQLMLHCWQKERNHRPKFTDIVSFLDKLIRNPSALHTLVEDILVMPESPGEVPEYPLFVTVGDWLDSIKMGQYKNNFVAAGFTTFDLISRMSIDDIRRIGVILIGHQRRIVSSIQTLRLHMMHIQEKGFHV

[8] = molecular target: kinases (KINOMEscan panel) (Homo sapiens, UniProt Q9Y6R4); conditions: MAP3K4; Published KINOMEscan; ref original PKIS2 published data; cited from earlier work

Sequence of kinases (KINOMEscan panel) (Homo sapiens, UniProt Q16584) (Q16584 whole entry): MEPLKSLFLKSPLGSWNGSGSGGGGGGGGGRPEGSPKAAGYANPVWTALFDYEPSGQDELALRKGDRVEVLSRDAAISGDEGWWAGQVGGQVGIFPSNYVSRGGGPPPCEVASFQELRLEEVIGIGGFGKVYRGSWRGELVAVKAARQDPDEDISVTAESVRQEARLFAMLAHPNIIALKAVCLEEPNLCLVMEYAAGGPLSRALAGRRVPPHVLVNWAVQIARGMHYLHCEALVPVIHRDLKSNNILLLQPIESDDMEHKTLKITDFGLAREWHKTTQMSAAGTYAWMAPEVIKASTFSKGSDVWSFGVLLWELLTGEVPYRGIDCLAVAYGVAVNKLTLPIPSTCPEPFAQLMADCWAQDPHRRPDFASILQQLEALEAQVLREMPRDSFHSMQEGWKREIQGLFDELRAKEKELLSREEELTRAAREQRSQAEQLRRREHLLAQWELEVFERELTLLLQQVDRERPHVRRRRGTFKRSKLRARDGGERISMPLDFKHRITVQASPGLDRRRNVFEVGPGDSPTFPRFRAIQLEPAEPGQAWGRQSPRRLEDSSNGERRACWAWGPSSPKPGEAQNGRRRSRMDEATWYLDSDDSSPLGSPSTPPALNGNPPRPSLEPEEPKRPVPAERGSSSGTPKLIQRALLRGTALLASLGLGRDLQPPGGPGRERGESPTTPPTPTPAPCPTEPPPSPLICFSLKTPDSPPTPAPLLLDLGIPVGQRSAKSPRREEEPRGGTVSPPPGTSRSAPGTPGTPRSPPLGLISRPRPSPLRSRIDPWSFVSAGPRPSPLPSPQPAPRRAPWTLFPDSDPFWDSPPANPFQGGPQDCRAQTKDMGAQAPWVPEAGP

## Cc1cccc(-c2nc(Nc3ccncc3)c3ccccc3n2)n1 [NK215]
[1]
  KINOMEscan MAP3K11: 6
[2]
  KINOMEscan PLK1: 6
[3]
  KINOMEscan MAP3K3: 0
[4]
  KINOMEscan PKN1: 0
[5]
  KINOMEscan MYLK: 12
[6]
  KINOMEscan RIOK3: 35
[7]
  KINOMEscan EPHA6: 0
[8]
  KINOMEscan MAP3K4: 16
